Results taken from patent US10517889B2, “Modulators of SMAD7 expression” (Ionis Pharmaceuticals, Inc., priority 2017, dated 2019).
Strand notation (5' to 3'): a small letter for the sugar, then the base; units joined by * are phosphorothioate-linked, units joined directly phosphodiester-linked; [ ] holds rarer units or linkages, { } end groups; capitals alone tell only the bases. e = 2'-O-(2-methoxyethyl) (MOE); [5mC] = 5-methylcytosine; d = 2'-deoxy (DNA)

system: human SMAD7 mRNA; assay: Antisense inhibition of human SMAD7 mRNA expression in Hep3B cells by 5-10-5 MOE gapmers, single concentration, electroporation, RT-PCR (Example 1, Study 1 and 2); assay type: cell-based; conditions: Study 2, electroporation with 15,000 nM antisense oligonucleotide, 5-10-5 MOE gapmers targeting SEQ ID NO: 1 and 2
How it was run: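 Hep3B cells (20,000/well) electroporated with 5-10-5 MOE gapmer at 5,000 nM or 15,000 nM for approximately 24 h. SMAD7 mRNA quantified by real-time PCR with primer probe set RTS5062 and normalized to RIBOGREEN total RNA. Values are percent inhibition relative to untreated controls.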

Point of comparison: “771630 (antisense eT*eG*e[5mC]*eT*eA*dA*dG*d[5mC]*dA*dT*dG*dT*d[5mC]*d[5mC]*d[5mC]*eT*e[5mC]*e[5mC]*e[5mC]*eA) [compound 771630]”, “% inhibition of SMAD7 mRNA expression” value 37%. Against it:
- 771631 (antisense eG*eG*eG*eA*e[5mC]*dT*dG*d[5mC]*dT*dA*dA*dG*d[5mC]*dA*dT*eG*eT*e[5mC]*e[5mC]*e[5mC]) [compound 771631] — lower, 0%
- 771638 (antisense eT*eA*eG*eG*eA*dT*dG*dG*dT*dA*d[5mC]*d[5mC]*dT*dT*dG*eG*eG*eT*eT*eA) [compound 771638] — higher, 41%
- 771639 (antisense e[5mC]*eA*eG*e[5mC]*e[5mC]*dT*dA*dG*dG*dA*dT*dG*dG*dT*dA*e[5mC]*e[5mC]*eT*eT*eG) [compound 771639] — higher, 51%
- 771644 (antisense eG*eA*eA*eG*eA*dA*dA*dT*dG*dA*dA*dA*dG*dA*dA*eG*eA*eG*eT*eT) [compound 771644] — lower, 0%
- 771646 (antisense eT*eA*eT*eG*eA*dG*dT*dT*dG*dT*dA*dG*dA*dA*dG*eA*eA*eA*eT*eG) [compound 771646] — lower, 0%
- 771647 (antisense eG*eA*eG*eT*eG*dT*dA*dT*dG*dA*dG*dT*dT*dG*dT*eA*eG*eA*eA*eG) [compound 771647] — lower, 6%
- 771652 (antisense eA*eT*eT*eG*eA*dG*d[5mC]*dT*dA*dA*dG*dA*dA*d[5mC]*dA*eG*eT*eG*eT*e[5mC]) [compound 771652] — lower, 0%
- 771654 (antisense eA*eA*eA*e[5mC]*eA*dT*dG*d[5mC]*dT*d[5mC]*dA*dT*dT*dG*dA*eG*e[5mC]*eT*eA*eA) [compound 771654] — lower, 32%
- 771655 (antisense eA*eG*eT*e[5mC]*eT*dA*dA*dA*d[5mC]*dA*dT*dG*d[5mC]*dT*d[5mC]*eA*eT*eT*eG*eA) [compound 771655] — lower, 14%
- 771660 (antisense eT*eT*e[5mC]*eT*e[5mC]*dT*dT*dG*dT*dT*d[5mC]*dA*dT*dT*dT*eA*eA*eA*e[5mC]*e[5mC]) [compound 771660] — lower, 0%
- 771662 (antisense eA*eT*eG*eA*eG*dA*dA*dT*dG*d[5mC]*dT*dT*d[5mC]*dT*d[5mC]*eT*eT*eG*eT*eT) [compound 771662] — lower, 29%
- 771668 (antisense e[5mC]*eT*e[5mC]*eT*e[5mC]*dA*dA*dA*dG*d[5mC]*dA*d[5mC]*dT*dA*d[5mC]*eA*eA*eT*eG*e[5mC]) [compound 771668] — lower, 9%
- 771676 (antisense eT*eG*eT*eT*eT*dA*dT*dA*d[5mC]*dA*d[5mC]*dA*dT*dT*dG*e[5mC]*eA*e[5mC]*eA*eA) [compound 771676] — lower, 2%
- 771678 (antisense eT*eT*eA*eT*eT*dT*dT*dT*d[5mC]*dT*dT*dG*dT*dT*dT*eA*eT*eA*e[5mC]*eA) [compound 771678] — lower, 0%
- 771679 (antisense eG*e[5mC]*eA*eT*e[5mC]*dT*dT*dT*dT*d[5mC]*dT*dT*dT*dA*dT*eT*eT*eT*eT*e[5mC]) [compound 771679] — lower, 0%
- 771684 (antisense eA*eT*eT*eT*eG*dG*d[5mC]*dA*dT*dT*dT*dG*dT*dT*dA*eT*eT*eT*eG*e[5mC]) [compound 771684] — lower, 0%
- 771686 (antisense eG*eT*eT*eT*eA*dT*d[5mC]*dT*dT*dT*dT*dT*dT*dA*dA*eT*eT*eT*eG*eG) [compound 771686] — lower, 0%
- 771687 (antisense e[5mC]*eT*eT*eG*eT*dG*dT*dT*dT*dA*dT*d[5mC]*dT*dT*dT*eT*eT*eT*eA*eA) [compound 771687] — lower, 13%

same assay, conditions: electroporation with 15,000 nM antisense oligonucleotide (Study 2), 5-10-5 MOE gapmers targeting SEQ ID NO: 1 and 2

Point of comparison: “771680 (antisense eA*eT*eT*eT*eA*dT*dA*dT*dT*dA*dA*dA*dG*d[5mC]*dA*eA*eA*eG*eT*eG) [compound 771680]”, “% inhibition of SMAD7 mRNA expression” value 0%. Against it:
- 771633 (antisense eG*eA*e[5mC]*e[5mC]*eA*dA*dA*dT*d[5mC]*d[5mC]*dT*dT*d[5mC]*dT*dT*eG*eG*eA*eG*eG) [compound 771633] — higher, 40%
- 771640 (antisense eG*eG*eT*eG*eT*d[5mC]*dA*dG*d[5mC]*d[5mC]*dT*dA*dG*dG*dA*eT*eG*eG*eT*eA) [compound 771640] — the same, 0%
- 771642 (antisense eA*eG*eA*eA*eG*dA*dG*dT*dT*dA*dG*dG*dT*dG*dT*e[5mC]*eA*eG*e[5mC]*e[5mC]) [compound 771642] — higher, 36%
- 771648 (antisense e[5mC]*eA*eT*eA*e[5mC]*dG*dA*dG*dT*dG*dT*dA*dT*dG*dA*eG*eT*eT*eG*eT) [compound 771648] — the same, 0%
- 771649 (antisense eA*eA*eG*eT*eA*dT*d[5mC]*dA*dT*dA*d[5mC]*dG*dA*dG*dT*eG*eT*eA*eT*eG) [compound 771649] — the same, 0%
- 771650 (antisense eG*eA*eA*eG*eT*dA*dT*d[5mC]*dA*dT*dA*d[5mC]*dG*dA*dG*eT*eG*eT*eA*eT) [compound 771650] — higher, 24%
- 771656 (antisense eG*eT*eT*eA*eA*dA*dG*dT*d[5mC]*dT*dA*dA*dA*d[5mC]*dA*eT*eG*e[5mC]*eT*e[5mC]) [compound 771656] — the same, 0%
- 771657 (antisense e[5mC]*eT*eT*eA*eT*dG*dT*dT*dA*dA*dA*dG*dT*d[5mC]*dT*eA*eA*eA*e[5mC]*eA) [compound 771657] — higher, 6%
- 771658 (antisense eA*eA*eT*eA*eG*d[5mC]*dT*dT*dA*dT*dG*dT*dT*dA*dA*eA*eG*eT*e[5mC]*eT) [compound 771658] — higher, 33%
- 771664 (antisense eT*eA*eA*eA*eT*dT*dT*d[5mC]*d[5mC]*dA*dA*dT*dG*dA*dG*eA*eA*eT*eG*e[5mC]) [compound 771664] — higher, 5%
- 771665 (antisense eA*eA*eT*eG*e[5mC]*dT*dA*dA*dA*dT*dT*dT*d[5mC]*d[5mC]*dA*eA*eT*eG*eA*eG) [compound 771665] — higher, 24%
- 771666 (antisense eA*e[5mC]*eT*eA*e[5mC]*dA*dA*dT*dG*d[5mC]*dT*dA*dA*dA*dT*eT*eT*e[5mC]*e[5mC]*eA) [compound 771666] — higher, 39%
- 771672 (antisense eT*eT*eT*eT*eT*dT*d[5mC]*dA*dG*dG*dA*dG*dT*d[5mC]*d[5mC]*eT*eT*eT*e[5mC]*eT) [compound 771672] — higher, 2%
- 771673 (antisense eA*eG*eG*eT*eT*dT*dT*dT*dT*dT*dT*d[5mC]*dA*dG*dG*eA*eG*eT*e[5mC]*e[5mC]) [compound 771673] — higher, 44%
- 771674 (antisense eA*eT*eA*eA*eA*dT*d[5mC]*dT*d[5mC]*dA*dG*dG*dT*dT*dT*eT*eT*eT*eT*eT) [compound 771674] — the same, 0%
- 771681 (antisense eT*eT*eT*eG*e[5mC]*dA*dT*dT*dT*dA*dT*dA*dT*dT*dA*eA*eA*eG*e[5mC]*eA) [compound 771681] — the same, 0%
- 771682 (antisense eT*eG*eT*eT*eA*dT*dT*dT*dG*d[5mC]*dA*dT*dT*dT*dA*eT*eA*eT*eT*eA) [compound 771682] — higher, 18%

Point of comparison: “771656 (antisense eG*eT*eT*eA*eA*dA*dG*dT*d[5mC]*dT*dA*dA*dA*d[5mC]*dA*eT*eG*e[5mC]*eT*e[5mC]) [compound 771656]”, “% Inhibition of SMAD7 mRNA” value 35%. Against it:
- 771640 (antisense eG*eG*eT*eG*eT*d[5mC]*dA*dG*d[5mC]*d[5mC]*dT*dA*dG*dG*dA*eT*eG*eG*eT*eA) [compound 771640] — the same, 35%
- 771648 (antisense e[5mC]*eA*eT*eA*e[5mC]*dG*dA*dG*dT*dG*dT*dA*dT*dG*dA*eG*eT*eT*eG*eT) [compound 771648] — lower, 17%
- 771664 (antisense eT*eA*eA*eA*eT*dT*dT*d[5mC]*d[5mC]*dA*dA*dT*dG*dA*dG*eA*eA*eT*eG*e[5mC]) [compound 771664] — lower, 25%
- 771672 (antisense eT*eT*eT*eT*eT*dT*d[5mC]*dA*dG*dG*dA*dG*dT*d[5mC]*d[5mC]*eT*eT*eT*e[5mC]*eT) [compound 771672] — lower, 30%
- 771680 (antisense eA*eT*eT*eT*eA*dT*dA*dT*dT*dA*dA*dA*dG*d[5mC]*dA*eA*eA*eG*eT*eG) [compound 771680] — lower, 0%

same assay, conditions: electroporation, 15,000 nM, approximately 24 hours, relative to untreated control cells, gapmers targeting SEQ ID NO: 1 and 2

Point of comparison: “771677 (antisense eT*eT*eT*e[5mC]*eT*dT*dG*dT*dT*dT*dA*dT*dA*d[5mC]*dA*e[5mC]*eA*eT*eT*eG) [compound 771677]”, “% inhibition of SMAD7 mRNA expression” value 21%. Against it:
- 771637 (antisense eT*eG*eG*eT*eA*d[5mC]*d[5mC]*dT*dT*dG*dG*dG*dT*dT*dA*eT*eG*eA*e[5mC]*eG) [compound 771637] — higher, 23%
- 771645 (antisense eG*eT*eT*eG*eT*dA*dG*dA*dA*dG*dA*dA*dA*dT*dG*eA*eA*eA*eG*eA) [compound 771645] — higher, 38%
- 771653 (antisense eT*eG*e[5mC]*eT*e[5mC]*dA*dT*dT*dG*dA*dG*d[5mC]*dT*dA*dA*eG*eA*eA*e[5mC]*eA) [compound 771653] — higher, 33%
- 771669 (antisense eT*eT*eT*e[5mC]*eT*d[5mC]*dT*d[5mC]*dT*d[5mC]*dA*dA*dA*dG*d[5mC]*eA*e[5mC]*eT*eA*e[5mC]) [compound 771669] — higher, 55%
- 771685 (antisense e[5mC]*eT*eT*eT*eT*dT*dT*dA*dA*dT*dT*dT*dG*dG*d[5mC]*eA*eT*eT*eT*eG) [compound 771685] — lower, 17%
